Assay results published in the NIST ThermoML archive (doi:10.1016/j.jct.2012.05.030).

Legend:
[1] = refractive index (other wavelength) (dimensionless); xn = mol fraction of the nth substance listed; conditions: 100 kPa, Liquid, Wavelength=632.8 nm, Standard Abbe refractometry
[2] = refractive index (other wavelength) (dimensionless); conditions: 100 kPa, Liquid, Wavelength=632.8 nm, Standard Abbe refractometry

CCCCCCCCCCCCCCCCC [heptadecane] + N#Cc1ccccc1
[1]
Conditions	refractive index
298.76 K, x2 = 0	1.4331
299.97 K, x2 = 0	1.4326
301.18 K, x2 = 0	1.4321
302.15 K, x2 = 0	1.4317
303.27 K, x2 = 0	1.4313
304.24 K, x2 = 0	1.4309
305.29 K, x2 = 0	1.4304
306.32 K, x2 = 0	1.43
307.42 K, x2 = 0	1.4296
307.55 K, x2 = 0	1.4296
307.55 K, x2 = 0.1039	1.4325
307.55 K, x2 = 0.2138	1.4362
307.55 K, x2 = 0.3266	1.4411
307.55 K, x2 = 0.4187	1.4458
307.55 K, x2 = 0.5127	1.4515
307.55 K, x2 = 0.5975	1.4578
307.55 K, x2 = 0.7127	1.4688
307.55 K, x2 = 0.8046	1.4802
307.55 K, x2 = 0.9266	1.501

CCCCCCCCCCCCCCC [pentadecane]
[2]
Conditions	refractive index
293.37 K	1.4305
294.36 K	1.4301
295.64 K	1.4296
296.92 K	1.429
297.91 K	1.4286
299.12 K	1.4281
300.26 K	1.4276
301.51 K	1.4271
302.46 K	1.4267
302.65 K	1.4266

N#Cc1ccccc1 [benzonitrile] + CCCCCCCCCCCCCCCCC
[1], x1 = 1
Conditions	refractive index
293.37 K	1.5252
293.99 K	1.5249
294.53 K	1.5247
295.09 K	1.5243
295.66 K	1.5241
296.11 K	1.5238
296.8 K	1.5236
297.16 K	1.5233
297.91 K	1.523
298.2 K	1.5228
298.8 K	1.5225
298.83 K	1.5226
299.26 K	1.5223
300.06 K	1.5219
300.12 K	1.5219
300.31 K	1.5218
301.13 K	1.5214
301.23 K	1.5214
301.35 K	1.5213
302.26 K	1.5209
302.31 K	1.5209
302.42 K	1.5208
303.41 K	1.5203
304.49 K	1.5198
305.64 K	1.5192
306.89 K	1.5186
307.55 K	1.5183
307.88 K	1.5181

CCCCCCCCCCCCCCCCC [heptadecane]
[2]
Conditions	refractive index
298.76 K	1.4331
299.97 K	1.4326
301.18 K	1.4321
302.15 K	1.4317
303.27 K	1.4313
304.24 K	1.4309
305.29 K	1.4304
306.32 K	1.43
307.42 K	1.4296
307.55 K	1.4296

CCCCCCCCCCCCCCC [pentadecane] + N#Cc1ccccc1
[1]
Conditions	refractive index
293.37 K, x2 = 0	1.4305
294.36 K, x2 = 0	1.4301
295.64 K, x2 = 0	1.4296
296.92 K, x2 = 0	1.429
297.91 K, x2 = 0	1.4286
299.12 K, x2 = 0	1.4281
300.26 K, x2 = 0	1.4276
301.51 K, x2 = 0	1.4271
302.46 K, x2 = 0	1.4267
302.65 K, x2 = 0	1.4266
302.65 K, x2 = 0.1097	1.4304
302.65 K, x2 = 0.22	1.435
302.65 K, x2 = 0.3283	1.4404
302.65 K, x2 = 0.4141	1.4454
302.65 K, x2 = 0.4959	1.451
302.65 K, x2 = 0.5849	1.4582
302.65 K, x2 = 0.7005	1.4698
302.65 K, x2 = 0.8052	1.4832
302.65 K, x2 = 0.8983	1.4986

N#Cc1ccccc1 [benzonitrile]
[2]
Conditions	refractive index
293.37 K	1.5252
293.99 K	1.5249
294.53 K	1.5247
295.09 K	1.5243
295.66 K	1.5241
296.11 K	1.5238
296.8 K	1.5236
297.16 K	1.5233
297.91 K	1.523
298.2 K	1.5228
298.8 K	1.5225
298.83 K	1.5226
299.26 K	1.5223
300.06 K	1.5219
300.12 K	1.5219
300.31 K	1.5218
301.13 K	1.5214
301.23 K	1.5214
301.35 K	1.5213
302.26 K	1.5209
302.31 K	1.5209
302.42 K	1.5208
302.65 K	1.5207
303.41 K	1.5203
304.49 K	1.5198
305.64 K	1.5192
306.89 K	1.5186
307.55 K	1.5183
307.88 K	1.5181

N#Cc1ccccc1 [benzonitrile] + CCCCCCCCCCCCCCC
[1], x1 = 1
Conditions	refractive index
293.37 K	1.5252
293.99 K	1.5249
294.53 K	1.5247
295.09 K	1.5243
295.66 K	1.5241
296.11 K	1.5238
296.8 K	1.5236
297.16 K	1.5233
297.91 K	1.523
298.2 K	1.5228
298.8 K	1.5225
298.83 K	1.5226
299.26 K	1.5223
300.06 K	1.5219
300.12 K	1.5219
300.31 K	1.5218
301.13 K	1.5214
301.23 K	1.5214
301.35 K	1.5213
302.26 K	1.5209
302.31 K	1.5209
302.42 K	1.5208
302.65 K	1.5207
303.41 K	1.5203
304.49 K	1.5198
305.64 K	1.5192
306.89 K	1.5186
307.88 K	1.5181
